Laboratory results taken from patent publication US4202819A, “2-(3-Alanyl)clavam antibiotic” (Hoffman-La Roche Inc., priority 1979, dated 1980).
Like-named read-outs stand apart in the source and are kept apart here.

Key:
Assay in all cases: in vitro antimicrobial activity (MIC), agar diffusion well method
Format in all cases: cell-based
[1] = tested on: Mycobacterium phlei 78 (ATCC 355); settings: Mycolicibacterium phlei
Description: (§1) The in vitro antimicrobial activity of the antibiotic (minimal inhibitory concentration) was determined by the agar diffusion well method. The results expressed in micrograms/ml were as follows: […]

[2] = tested on: Candida albicans 155 (NRRL 477)
Description: as §1

[3] = tested on: Bacillus megaterium 164 (ATCC 8011); settings: Priestia megaterium
Description: as §1

[4] = tested on: Bacillus sp. TA (ATCC 27860)
Description: as §1

[5] = tested on: Bacillus sp. E (ATCC 27859); settings: ATCC27859, BBL Antibiotic Medium "A" Assay Agar
Description: as §1

[6] = tested on: Serratia sp. 101 (ATCC 93)
Description: as §1

[7] = tested on: Serratia marcescens SM (ATCC 27857)
Description: as §1

[8] = tested on: Streptomyces cellulosae 097 (ATCC 3313)
Description: as §1

[9] = tested on: Sarcina lutea PCI (ATCC 9341); settings: Micrococcus luteus
Description: as §1

[10] = tested on: Pseudomonas aeruginosa 56 (ATCC 8709)
Description: as §1

[11] = tested on: Staphylococcus aureus 82 (ATCC 6538 P); settings: ATCC6538, BBL Antibiotic Medium "A" Assay Agar
Description: as §1

[12] = tested on: Saccharomyces cerevisiae 90 (ATCC 4226)
Description: as §1

[13] = tested on: Klebsiella pneumoniae 369 (ATCC 27858)
Description: as §1

[14] = tested on: Streptococcus faecium (ATCC 8043); settings: Enterococcus faecium, ATCC8043; BBL Antibiotic Medium "A" Assay Agar
Description: as §1

[15] = tested on: Paecilomyces varioti M16 (ATCC 26820)
Description: as §1

[16] = tested on: Escherichia coli 94 (ATCC 27856)
Description: as §1

[17] = tested on: Bacillus subtilis 558 (NRRL 558)
Description: as §1

[18] = tested on: Penicillium digitatum 0184 (ATCC 26821); settings: ATCC26821, BBL Antibiotic Medium "A" Assay Agar
Description: as §1

[19] = tested on: Proteus vulgaris 101N (ATCC 6380); settings: ATCC6380, BBL Antibiotic Medium "A" Assay Agar
Description: as §1

[20] = tested on: Acinetobacter calcoaceticus PCI-3 (ATCC 10153)
Description: as §1

Measured: MIC

N[C@@H](CC1CN2C(=O)CC2O1)C(=O)O (some centres unmarked) [2-(3-alanyl)clavam, 3-(7-oxo-4-oxa-1-azabicyclo[3.2.0]hept-3-yl)alanine]
500 µg/mL: [2]; NRRL477, Davis Minimal Agar | [6]; ATCC93, Davis Minimal Agar
250 µg/mL: [15]; ATCC26820, BBL Antibiotic Medium "A" Assay Agar
0.03 µg/mL: [4]; ATCC27860, Davis Minimal Agar
62.5 µg/mL: [13]; ATCC27858, Davis Minimal Agar
0.25 µg/mL: [17]; NRRL558, Davis Minimal Agar
125 µg/mL: [12]; ATCC4226, Davis Minimal Agar
15.7 µg/mL: [15]; ATCC26820, Davis Minimal Agar
> 500 µg/mL: [1]; ATCC355, Davis Minimal Agar | [3]; ATCC8011, Davis Minimal Agar | [7]; ATCC27857, Davis Minimal Agar | [8]; ATCC3313, Davis Minimal Agar | [9]; ATCC9341, Davis Minimal Agar | [20]; ATCC10153, Davis Minimal Agar
1000 µg/mL: [16]; ATCC27856, Davis Minimal Agar
> 1000 µg/mL: [1]; ATCC355, BBL Antibiotic Medium "A" Assay Agar | [2]; NRRL477, BBL Antibiotic Medium "A" Assay Agar | [3]; ATCC8011, BBL Antibiotic Medium "A" Assay Agar | [4]; ATCC27860, BBL Antibiotic Medium "A" Assay Agar | [5] | [6]; ATCC93, BBL Antibiotic Medium "A" Assay Agar | [7]; ATCC27857, BBL Antibiotic Medium "A" Assay Agar | [8]; ATCC3313, BBL Antibiotic Medium "A" Assay Agar | [9]; ATCC9341, BBL Antibiotic Medium "A" Assay Agar | [10]; Davis Minimal Agar | [10]; Pseudomonas aeruginosa, ATCC8709, BBL Antibiotic Medium "A" Assay Agar, read-out: MIC | [11] | [12]; ATCC4226, BBL Antibiotic Medium "A" Assay Agar | [13]; ATCC27858, BBL Antibiotic Medium "A" Assay Agar | [14] | [16]; ATCC27856, BBL Antibiotic Medium "A" Assay Agar | [17]; NRRL558, BBL Antibiotic Medium "A" Assay Agar | [18] | [19] | [20]; ATCC10153, BBL Antibiotic Medium "A" Assay Agar
